Ends that are not written are not given here. * marks the point of attachment. Octanoyl = CCCCCCCC(=O)*
Experiments:
primary SCs = experiment: In-vitro ischemia of primary SCs from normo-perfused muscles; type: cell-based, C57BL/6J mice; conditions: SB202190 1 μmol/L added
Protocol: (§1) SCs were isolated from gastrocnemius muscles of C57BL/6J wild type mice subjected to ischemia or C57BL/6J mice lacking the GHSR1a and ghrelin genes (10 mice, kind gift of Professor M. Tschöp)^39. To obtain SCs, muscle samples were subjected to enzymatic digestion as described^45. In selected experiments, SCs were recovered from normo-perfused muscles and subjected to in-vitro ischemia in presence of saline, AG (1 μmol/L) or UAG (1 μmol/L). In-vitro ischemia was induced by incubating cells in DMEM+2% FCS at 5% CO2/95% N2 humidified atmosphere, yielding 1% O2 concentrations for 24 h^18. The in-vitro ischemia was also performed in the presence of SB202190 (1 μmol/L).
(§2) SC cell-cycle progression was evaluated by evaluating the percentage of PCNA-positive cells or by FACS analysis as previously described^46. The percentage of cells in each cell cycle phase was determined by ModFit LT software (Verity Software House. Inc, topsham, ME, USA). Celss proliferation was also assayed by evaluating the percentage of PCNA-positive cells by FACS analysis.
(§3) Cells were lysed and protein detection was obtained as previously described^47. Cells were lysed (50 mmol/L Tris HCl [pH 8.3], 1% Triton X-100, 10 mmol/L PMSF, 100 U/ml aprotinin, 10 μmol/L leupeptin) and protein concentrations were obtained as previously described^47. […] Densitometric analysis was used to calculate the differences in the fold induction of protein levels and normalized to tubulin, a actin or p38MAPK content. Values are reported as relative amount
(§4) Intracellular ROS production was evaluated using DCF-DA (5-(and-6)-carboxy-2′,7′-dichlorofluorescein diacetate, […] final concentration) (Molecular Probe, Invitrogen) assay as previously described^23. The formation of TBARS was determined in muscles using the OXI-TEK kit (ZeptoMetrix Corp.) and a luminescence spectrometer (Bio-Rad Laboratories, Hercules, Calif.) with excitation set at 530 nm, emission at 550 nm to measure in-vivo oxidative stress levels^33.
Total RNA was isolated using TRIzol reagent (Invitrogen) from SCs recovered from muscles of treated animals or from SCs subjected to in-vitro ischemia. miR-221/222 expression was evaluated by qRT-PCR as previously described^48. Loss-of-function experiments were performed in SCs transfected for 48 h with anti-miRNA negative control, anti-miR-221/222 antagonists (Applied Biosystem, Foxter Cyto CA, USA), according to the manufacturer's instructions^48.

[1] = test system: unilateral hind limb ischemia in C57BL/6J mice (ischemic gastrocnemius muscle); experiment: Murine hind-limb ischemia model; type: in vivo
Protocol: Male C57BL/6J mice (Charles River Lab., Wilmington, Mass., USA) were anesthetized and unilateral hind limb ischemia was induced as described^42. The normo-perfused contralateral limb of each mouse was used as an internal control. After hind-limb ischemia, animals (18 mice per group) were treated by intra-peritoneal injection daily from 0 to day 21 with either saline, AG (100 μg/kg) or UAG (100 μg/kg). In selected experiments, mice received intramuscular injections of pre-miR oligonucleotides (5 mice/group). To induce toxic damage, 100 μl of 1% barium chloride (BaCl2, Sigma Aldrich) was injected unilaterally into the hind limb (9 mice). Mice were treated according to European Guidelines and policies as approved by the University of Turin Ethical Committee.
Semiquantitative estimation (by repeated measures analyzed with ANOVA and Newman-Keuls Multiple Comparison test) of foot damage was performed serially using the following classification: 3=dragging of foot (foot necrosis), 2=no dragging but no plantar flexion (foot damage), 1=plantar flexion but no toe flexion (toe damage), and 0=flexing the toes to resist gentle traction on the tail (no damage)^43.
Gastrocnemius muscle sections from ischemic or normo-perfused limbs were stained with hematoxylin and eosin for histological analysis. The proportion of fibers with central nuclei (regenerating fibers) was measured by MetaMorph software (Life Sciences Research Imaging Systems) in the injured area and the cross-sectional areas of the fibers in the injured and non-injured areas. For IF analysis, muscle sections were processed as described previously^44. The number of cells expressing the indicated markers or CD31 positive vessels was evaluated as previously described^34.
as §4

SCs from double KO mice = experiment: In-vitro ischemia of SCs from double KO mice lacking the GHSR1a and ghrelin genes; type: cell-based, C57BL/6J mice lacking the GHSR1a and ghrelin genes
Protocol: as §1, §2, §3, §4

[2] = test system: glucose, insulin and lipid metabolisms; conditions: cited from earlier work; for retention of the activity of UAG full length: U.S. Pat. Nos. 8,222,217 and 8,318,664; for smallest fragment retaining UAG activity: earlier patents
[3] = test system: C2C12 mouse muscular cell line; experiment: ROS production (DCF-DA) in C2C12 cells under oxidative stress; type: cell-based; conditions: 1 μmol/L; stress by hypoxia (1% O2), AGEs, hyperglycemia (25 mM) or H2O2; FIG. 8
Protocol: Kinetic analysis of ROS production was evaluated by using DCF-DA (5-(and-6)-carboxy-2′,7′-dichlorofluorescein diacetate, 0.5 μmol/L final concentration) (Molecular Probe, Invitrogen) assay. C2C12 cells were cultured with 400 μg/ml Advanced Glycated End-product (AGE) or 25 mM glucose (high glucose HG) for 48 h, H2O2 (100 μM) for 2 h. In parallel experiments C2C12 cells were subjected to hypoxia (DMEM+2% FCS in a 5% CO2-95% N2 humidified atmosphere, yielding to 1% O2 concentrations for 24 h). UAG (1 μmol/L) AZP 531 (1 μmol/L) or AZP-502 (1 μmol/L) was added where indicated.

Oc1ccc(-c2nc(-c3ccncc3)c(-c3ccc(F)cc3)[nH]2)cc1 [SB202190, reference compound]
cell-cycle entry of SCs exposed to UAG (primary SCs; FIG. 5E): blocked cell-cycle entry | MyoD and myogenin expression in SCs exposed to UAG (primary SCs; FIG. 5F): prevented MyoD and myogenin expression

AG: 28 amino acid peptide with an n-octanoyl modification on the Ser3 residue; endogenous ligand of GHSR-1a (GSS(Octanoyl)FLSPEHQRVQQRKESKKPPAKLQPR; UniProt Q9UBU3 24-51, looked up) [reference compound]
protection against ischemia-induced damage (overall in vivo effect) ([1]; 100 μg/kg i.p. daily): failure to detect in vivo effects | foot damage (functional score) ([1]; 100 μg/kg i.p. daily from day 0, FIG. 1A): significantly higher | capillary density, ischemic vs contralateral control muscles of the same animals ([1]; 100 μg/kg i.p. daily, FIG. 1B): significantly lower capillary density than in contralateral control muscles | concentration of TBARS in ischemic muscles ([1]; FIG. 3A): Significant increases in the concentration of TBARS | SC cell-cycle progression (SCs from double KO mice; FIG. 5G): only UAG | p-p38/MAPK, Pax-7, MyoD, Myf5 and myogenin expression (SCs from double KO mice; FIGS. 5H, 5I): only UAG

EHQRVQ [UAG (8-13)]
retention of the activity of UAG full length [2]: retain the activity of UAG full length on glucose, insulin and lipid metabolisms

Glu-His-Gln-Arg (EHQR; listed as Homo sapiens) [UAG (8-11)]
retention of the activity of UAG full length [2]: retain the activity of UAG full length on glucose, insulin and lipid metabolisms | smallest fragment retaining UAG activity [2]: smallest UAG fragment to retain UAG activities

Glu-His-Gln-Arg-Val (EHQRV; listed as Homo sapiens) [UAG (8-12)]
retention of the activity of UAG full length [2]: retain the activity of UAG full length on glucose, insulin and lipid metabolisms

His-Gln-Arg (HQR; listed as Homo sapiens) [UAG (9-11)]
retention of the activity of UAG full length [2]: retain the activity of UAG full length on glucose, insulin and lipid metabolisms

His-Gln-Arg-Val (HQRV; listed as Homo sapiens) [UAG (9-12)]
retention of the activity of UAG full length [2]: retain the activity of UAG full length on glucose, insulin and lipid metabolisms | smallest fragment retaining UAG activity [2]: smallest UAG fragment to retain the biological activity of UAG

SPEHQRVQ [UAG (6-13)]
protection against oxidative stress (ROS production) [3]: have a protective effect on C2C12 cells against oxidative stress | retention of the activity of UAG full length [2]: retain the activity of UAG full length on glucose, insulin and lipid metabolisms

Ser-Pro-Glu-His-Gln-Arg-Val-Gln (cycl) (SPEHQRVQ; also: cyclic, closure not given here; listed as Homo sapiens) [UAG(6-13)cyclic]
protection against oxidative stress (ROS production) [3]: have a protective effect on C2C12 cells against oxidative stress
